Test results reported in patent US9206200B2, “N-linked lactam M1 receptor positive allosteric mogulators” (Merck Sharp & Dohme Corp., priority 2011, dated 2015).

Target: T1, acetylcholine muscarinic M1 receptor (Homo sapiens, UniProt P11229)
T1 construct: expressed in transfected cells; host or cells: CHOnfat cells (CHO cells with an NFAT reporter) expressing hM1, kept under Geneticin selection
T1 sequence (P11229 1-460): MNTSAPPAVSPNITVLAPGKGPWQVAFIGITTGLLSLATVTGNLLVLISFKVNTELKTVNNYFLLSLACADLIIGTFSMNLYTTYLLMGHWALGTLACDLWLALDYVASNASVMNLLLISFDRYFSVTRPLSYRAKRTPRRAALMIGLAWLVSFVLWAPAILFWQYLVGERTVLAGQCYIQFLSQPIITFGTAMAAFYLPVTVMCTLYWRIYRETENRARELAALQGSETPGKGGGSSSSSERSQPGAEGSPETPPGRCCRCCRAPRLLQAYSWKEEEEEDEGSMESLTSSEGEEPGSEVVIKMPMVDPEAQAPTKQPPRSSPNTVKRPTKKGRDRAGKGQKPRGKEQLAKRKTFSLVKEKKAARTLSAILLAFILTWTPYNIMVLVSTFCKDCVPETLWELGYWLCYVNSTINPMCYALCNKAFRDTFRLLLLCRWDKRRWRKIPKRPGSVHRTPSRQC
Test: muscarinic FLIPR assay: intracellular calcium in CHOnfat/hM1 cells, potentiation of EC20 acetylcholine
Assay type: cell-based
Conditions: IP Value (nM), Table 3; inflection point calculated from the FLIPR values; EC20 acetylcholine (3 nM final)
Procedure: The assay studies the effect of one or several concentrations of test compounds on basal or acetylcholine-stimulated Ca^2+ levels using FLIPR.
Compounds are prepared and subjected to a preincubation period of […]. Thereafter, a single EC20 concentration of acetylcholine is added to each well (3 nM final). The intracellular Ca^2+ level of each sample is measured and compared to an acetylcholine control to determine any modulatory activity.
Cells: CHOnfat/hM1, hM2, hM3 or hM4 cells are plated 24 hr before the assay at a density of 18,000 cells/well (100 μL) in a 384 well plate. CHOnfat/hM1 and CHOnfat/hM3 Growth Medium: 90% DMEM (Hi Glucose); 10% HI FBS; 2 mM L-glutamine; 0.1 mM NEAA; Pen-Strep; and 1 mg/ml Geneticin, are added. For M2Gqi5CHOnfat and M4Gqi5CHOnfat cells, an additional 600 ug/ml hygromycin is added.
Equipment: 384 well plate, 120 μl, addition plate; 96-well Whatman 2 ml Uniplate Incubator, 37° C., 5% CO2; Skatron EMBLA-384 Plate Washer; Multimek Pipetting System; Genesis Freedom 200 System; Mosquito System; Temo Nanolitre Pipetting System; and FLIPR^384 Fluorometric Imaging Plate Reader System are used.
Buffers. Assay Buffer: Hanks Balanced Salt Solution, with 20 mM Hepes, 2.5 mM Probenecid (Sigma P-8761) first dissolved in 1 N NaOH, 1% Bovine Serum Albumin (Sigma A-9647). Dye Loading Buffer: Assay Buffer plus 1% Fetal Bovine Serum and Fluo-4AM/Pluronic Acid Mixture. 2 mM Fluo-4AM ester stock in DMSO (Molecular Probes F-14202) Concentration of 2 μM in buffer for a final concentration of 1 μM in Assay. 20% Pluronic Acid Solution stock, with concentration of 0.04% in Buffer, 0.02% in Assay.
65 μL of 2 mM Fluo-4AM are mixed with 130 μL of 20% Pluronic Acid. The resulting solution and 650 μL FBS is added to the assay buffer for a total volume of 65 mL. Positive Controls: 4-Br-A23187: 10 mM in DMSO; final concentration 10 μM. Acetylcholine: 10 mM in water, working stock at both 20 μM and 30 μM in assay buffer, final concentration of 10 μM. This is used to check the maximum stimulation of the CHOK1/hM1 cells. 20 μM (2×) acetylcholine is added in the preincubation part of the assay, and the 30 μM (3×) stock is added in the second part. (EC20)Acetylcholine: 10 mM in water, working stock of 9 nM (3×), and final concentration in assay is 3 nM. This is used after the preincubation with test compounds. Addition of the EC20 Acetylcholine to each well with a test compound will ascertain any modulator activity. 24 wells contain 3 nM Acetylcholine alone as a control.
Determining Activity of Putative Compounds:
Screening Plate Compounds are titrated in 96-well plates (columns 2-11), 100% DMSO, started at a concentration of 15 mM (150× stock concentration), and 3-fold serial dilutions using Genesis Freedom200 System. Four 96-well plates are combined into a 384-well plate using Mosquito Nanolitre Pipetting System by transferring 1 μl of serial diluted compounds to each well, and 1 mM acetylcholine (100× stock concentration) were added as a control. Using Temo, 49 μl assay buffer is added to each well of the 384-well plate right before assay.
In a 96-well Whatman 2 ml Uniplate, 9 nM Acetylcholine (3×) is pipetted into wells corresponding to the screening compounds, and into control wells. The 30 μM acetylcholine control (3×) is added into control wells, and the 3× agonist plate is transferred into a 384 well plate.
Cells are washed three times with 100 μL of buffer, leaving […] of buffer in each well. Using Multimek, 30 μL of Dye Loading Buffer is added into each well and incubated at 37° C., 5% CO2 for up to one hr.
After 60 min, the cells are washed three times with 100 μL of buffer, leaving 30 μL of buffer in each well. The cell plate, screening plate, and agonist addition plates are placed on the platform in the FLIPR and the door closed. A signal test to check background fluorescence and basal fluorescence signal is performed. Laser intensity is adjusted if necessary.

How did the EC50 turn out when `CN(C)C(=O)Oc1cccc(N2Cc3c(cc(CN4CCC(F)(F)CC4)c4cccnc34)C2=O)c1` [Example 10, 3-{5-[(4,4-Difluoropiperidin-1-yl)methyl]-7-oxo-7,9-dihydro-8H-pyrrolo[3,4-h]quinolin-8-yl}phenyl dimethylcarbamate] was run?
Its EC50 is 2260 nM.

Same assay, conditions: Table 1; CHOnfat/hM1 cells, FLIPR, EC20 acetylcholine (3 nM final); read-out: M1 Pot.

Which EC50 does the source give for `O=C1c2cc(CN3C[C@@H](F)[C@H](F)C3)c3ccccc3c2CN1C1CCCCC1O` (relative stereo) [Example 29, 5-{[trans-3,4-difluoropyrrolidin-1-yl]methyl}-2-(2-hydroxycyclohexyl)-1,2-dihydro-3H-benzo[e]isoindol-3-one] here?
The EC50 was 240 nM.

With `CC1c2c(cc(CN3CCC(C#N)(c4ccccn4)CC3)c3ccccc23)C(=O)N1[C@H]1CCCC[C@@H]1O` (single isomer, unassigned) [Example 44] as the molecule, how does the EC50 read?
Its EC50 is 9.6 nM.

With `CC1c2c(cc(CN3CCC(C#N)(c4ccccn4)CC3)c3ccccc23)C(=O)N1[C@H]1CCCC[C@@H]1O` (single isomer, unassigned) [Example 45] as the molecule, how does the EC50 read?
Its EC50 is 272 nM.

`O=C1c2cc(CN3CCCCC3)c3ccccc3c2CN1[C@H]1CCCC[C@@H]1O` [Example 11] was tested. Which EC50 did it give?
Its EC50 is 4900 nM.

Which EC50 does the source give for `CN1CCN(Cc2cc3c(c4ccccc24)CN([C@H]2CCCC[C@@H]2O)C3=O)CC1` [Example 12, 2-[(1S,2S)-2-hydroxycyclohexyl]-5-[(4-methylpiperazin-1-yl)methyl]-1,2-dihydro-3H-benzo[e]isoindol-3-one] here?
Its EC50 is 1300 nM.

How did the EC50 turn out when `CN1CCN(Cc2cc3c(c4ccccc24)CN([C@H]2CCCC[C@@H]2O)C3=O)CC1=O` [Example 13, 2-[(1S,2S)-2-hydroxycyclohexyl]-5-[(4-methyl-3-oxopiperazin-1-yl)methyl]-1,2-dihydro-3H-benzo[e]isoindol-3-one] was run?
Its EC50 is 560 nM.

With `CC(=O)N1CCN(Cc2cc3c(c4ccccc24)CN(C2CCCCC2O)C3=O)CC1` (stereo not drawn) [Example 14, 5-[(4-acetylpiperazin-1-yl)methyl]-2-(2-hydroxycyclohexyl)-1,2-dihydro-3H-benzo[e]isoindol-3-one] as the molecule, how does the EC50 read?
Its EC50 is 2600 nM.

Same assay, conditions: Table 2; CHOnfat/hM1 cells, FLIPR, EC20 acetylcholine (3 nM final); read-out: M1 Pot.

How did the EC50 turn out when “1-({8-[(1S,2S)-2-hydroxycyclohexyl]-7-oxo-8,9-dihydro-7H-pyrrolo[3,4-h]quinolin-5-yl}methyl)-4-(6-methoxypyridin-2-yl)piperidine-4-carbonitrile [Example 155]” was run?
Its EC50 is 520 nM.

For “1-({8-[(1S,2S)-2-hydroxycyclohexyl]-7-oxo-8,9-dihydro-7H-pyrrolo[3,4-h]quinolin-5-yl}methyl)-4-(6-methoxypyridin-2-yl)piperidine-4-carbonitrile [Example 156]”, which EC50 is on record?
Its EC50 is 57 nM.

For `CC1c2c(cc(CN3CCC(F)(C#N)CC3)c3cccnc23)C(=O)N1C1CCCCC1O` (single isomer, unassigned) [Example 118, 4-fluoro-1-{[8-(2-hydroxycyclohexyl)-9-methyl-7-oxo-8,9-dihydro-7H-pyrrolo[3,4-h]quinolin-5-yl]methyl}piperidine-4-carbonitrile], which EC50 is on record?
Its EC50 is 450 nM.

With `CC1c2c(cc(CN3CCC(F)(C#N)CC3)c3cccnc23)C(=O)N1C1CCCCC1O` (single isomer, unassigned) [Example 119, 4-fluoro-1-{[8-(2-hydroxycyclohexyl)-9-methyl-7-oxo-8,9-dihydro-7H-pyrrolo[3,4-h]quinolin-5-yl]methyl}piperidine-4-carbonitrile] as the molecule, how does the EC50 read?
The EC50 was 44 nM.

Same assay, conditions: Table 3; inflection point calculated from the FLIPR values; EC20 acetylcholine (3 nM final); read-out: IP Value

How did the EC50 turn out when `N#CC1(c2ccccn2)CCN(Cc2cc3c(c4ccccc24)CN([C@H]2CCCC[C@@H]2O)C3=O)CC1` [Example 1, 1-({2-[(1S,2S)-2-Hydroxycyclohexyl]-3-oxo-2,3-dihydro-1H-benzo[e]isoindol-5-yl}methyl)-4-(pyridine-2-yl)piperidine-4-carbonitrile] was run?
The EC50 was 10 nM.

How did the EC50 turn out when `O=C1c2cc(CN3CCC(F)(c4ccccn4)CC3)c3ccccc3c2CN1[C@H]1CCCC[C@@H]1O` [Example 2, 5-{[4-Fluoro-4-(pyridine-2-yl)piperidine-1-yl]methyl}-2-[(1S,2S)-2-hydroxycyclohexyl]-1,2-dihydro-3H-benzo[e]isoindol-3-one] was run?
The EC50 was 58 nM.

With `CC1c2c(cc(CN3CCC(C#N)(c4ccccn4)CC3)c3ccccc23)C(=O)N1[C@H]1CCCC[C@@H]1O` (stereo partly drawn) [Example 3, 1-({2-[(1S,2S)-2-Hydroxycyclohexyl]-1-methyl-3-oxo-2,3-dihydro-1H-benzo[e]isoindol-5-yl}methyl)-4-(pyridine-2-yl)piperidine-4-carbonitrile] as the molecule, how does the EC50 read?
Its EC50 is 19 nM.

Which EC50 does the source give for `Cc1cccc(C2(C#N)CCN(Cc3cc4c(c5ccccc35)CN([C@H]3CCCC[C@@H]3O)C4=O)CC2)n1` [Example 4, 1-({2-[(1S,2S)-2-Hydroxycyclohexyl]-3-oxo-2,3-dihydro-1H-benzo[e]isoindol-5-yl}methyl)-4-(6-methylpyridin-2-yl)piperidine-4-carbonitrile] here?
Its EC50 is 27 nM.

For `CCc1cccc(C2(C#N)CCN(Cc3cc4c(c5ccccc35)CN([C@H]3CCCC[C@@H]3O)C4=O)CC2)n1` [Example 5, 4-(6-Ethylpyridin-2-yl)-1-({2-[(1S,2S)-hydroxycyclohexyl]-3-oxo-2,3-dihydro-1H-benzo[e]isoindol-5-yl}methyl)piperidine-4-carbonitrile], which EC50 is on record?
The EC50 was 55 nM.

With `COc1cccc(C2(C#N)CCN(Cc3cc4c(c5ccccc35)CN([C@H]3CCCC[C@@H]3O)C4=O)CC2)n1` [Example 6, 1-({2-[(1S,2S)-2-Hydroxycyclohexyl]-3-oxo-2,3-dihydro-1H-benzo[e]isoindol-5-yl}methyl)-4-(6-methoxypyridin-2-yl)piperidine-4-carbonitrile] as the molecule, how does the EC50 read?
The EC50 was 65 nM.

For `O=C1c2cc(CN3CCC(F)(F)CC3)c3cccnc3c2CN1[C@H]1CCOC[C@@H]1O` [Example 7, 1,5-Anhydro-2,3-dideoxy-3-{5-[(4,4-difluoropiperidin-1-yl)methyl]-7-oxo-7,9-dihydro-8H-pyrrolo[3,4-h]quinolin-8-yl}-L-threo-pentitol], which EC50 is on record?
The EC50 was 147 nM.

With `O=C1c2cc(CN3CCC(F)(F)CC3)c3cccnc3c2CN1[C@H]1COCC[C@@H]1O` [Example 8, 1,5-Anhydro-2,4-dideoxy-2-{5-[(4,4-difluoropiperidin-1-yl)methyl]-7-oxo-7,9-dihydro-8H-pyrrolo[3,4-h]quinolin-8-yl}-L-threo-pentitol] as the molecule, how does the EC50 read?
The EC50 was 41 nM.

Which EC50 does the source give for `C=CC1(F)CCN(Cc2cc3c(c4ncccc24)CN([C@H]2CCCC[C@@H]2O)C3=O)CC1` [Example 9, 5-[(4-Ethenyl-4-fluoropiperidin-1-yl)methyl]-8-[(1S,2S)-2-hydroxycyclohexyl]-8,9-dihydro-7H-pyrrolo[3,4-h]quinolin-7-one] here?
Its EC50 is 420 nM.
